# Source: patent US20250161399A1, “TARGETING SLC46A2-MEDIATED MUROPEPTIDE TRANSPORT TO TREAT PSORIASIS” (University of Massachusetts, priority 2021, published 2025)
# Entries after “also recorded” stand apart in the source; their conditions may differ. Peptide text beside a SMILES is read from it. * marks the point of attachment. Cbz = O=C(OCc1ccccc1)*; CH2F = FC*
# T1: Slc46a2 (Mus musculus, UniProt Q8CA03)
# T1 construct: primary mouse keratinocytes, which express Slc46a2 and Nod1; endogenous in cells; host or cells: primary mouse epidermal keratinocytes (WT or Nod1-/-; Slc46a2-/- cells served as the negative control)
# T1 sequence (Q8CA03 1-479): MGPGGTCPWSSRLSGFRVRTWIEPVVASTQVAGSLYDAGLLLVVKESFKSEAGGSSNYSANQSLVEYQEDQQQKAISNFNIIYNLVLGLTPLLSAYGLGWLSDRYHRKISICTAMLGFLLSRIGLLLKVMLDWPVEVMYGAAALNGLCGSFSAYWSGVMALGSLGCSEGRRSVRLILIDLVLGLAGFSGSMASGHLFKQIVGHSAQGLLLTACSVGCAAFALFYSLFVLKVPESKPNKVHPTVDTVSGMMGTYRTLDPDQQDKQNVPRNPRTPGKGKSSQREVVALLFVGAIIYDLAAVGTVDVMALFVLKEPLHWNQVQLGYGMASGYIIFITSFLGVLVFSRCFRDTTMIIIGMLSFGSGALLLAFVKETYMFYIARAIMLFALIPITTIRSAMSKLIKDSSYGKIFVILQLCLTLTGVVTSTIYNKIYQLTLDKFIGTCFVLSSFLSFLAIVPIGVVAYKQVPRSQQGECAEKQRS
# B1: IL-1α: cytokine used to challenge dermal fibroblasts (10 ng/ml) (protein, UniProt P01583 113-271, looked up)
# Interleukin-1 alpha: SAPFSFLSNVKYNFMRIIKYEFILNDALNQSIIRANDQYLTAAALHNLDEAVKFDMGAYKSSKDDAKITVILRISKTQLYVTAQDEDQPVLLKEMPEIPKTITGSETNLLFFWETHGTKNYFTSVAHPNLFIATKQDYWVCLAGGPPSITDFQILENQA
# Experiments:
# [1] = test system: mouse skin (NOD1/NOD2 response); assay: neutrophil recruitment to pinnae after intradermal injection; format: in vivo; conditions: for neutrophil recruitment response in Slc46a2-deficient mice compared to WT: Tri-DAP 25 μM, C12-iE-DAP 20 μM
# Procedure: […] After 3 h, both ears were individually harvested, and stored in ice cold PBS on ice until further processing for flow cytometry staining.
# Pinnae were cut into small pieces and incubated for 30 min at 37° C. in a solution of 1 mg/ml collagenase (Sigma) in DMEM media containing 10% FBS. Ice-cold FACS buffer (2% FBS in PBS) was added to skin samples to stop the reaction. Then samples were placed on 70 μm cell strainers and ground using a cell strainer pestle to create a single cell suspension. Cells were spun at 180 g for 5 min at 4° C. and resuspended in FACS buffer.
# (§1) 1×10^6 cells were stained with F4/80-PE/Cy7 (1:200), CD45-alexaflour700 (1:200) and Gr1-PE (1:200) for 30 min on ice in the dark. Samples were washed three times with FACS buffer and analyzed with a Cytek Aurora cytometer. Results were analyzed with FlowJo software (Tree Star, USA).
# [2] = test system: mouse peritoneum (NOD1/NOD2 response); assay: neutrophil recruitment to the peritoneum after intraperitoneal injection; format: in vivo; conditions: 3 h, iE-DAP 30 μM, MDP 10 μM
# Procedure: For peritoneal cell extraction, animals were euthanized and cells from peritoneal cavity were isolated by peritoneal lavage (58). Harvested cell suspensions were centrifuged at 300 g for 5 min at 4° C. and resuspended in FACS buffer.
# as §1
# [3] = test system: psoriasis-like inflammation on mouse pinnae; assay: IMQ model of psoriasis-like dermatitis (ear thickness, H&E histology); format: in vivo
# Procedure: Pinnae were harvested 3 h after DAP-muropeptide administration or 7 d after topical application of IMQ and fixed in PBS containing 10% formalin. Paraffin-embedded sections were cut at […], stained with H&E, and imaged by light microscopy.
# The induction of psoriasis-like inflammation on mouse pinnae was done as previously described (60). In brief, mice were treated daily for up to 6 d with 5 mg 5% IMQ cream topically applied on one pinna, while the other pinnae were treated with a similar amount of Vaseline, as vehicle control. Ear thickness was measured daily using a digital caliper. The change in ear thickness over time was reported as the difference related to the first day of topical application. For the bacterial assisted psoriasis model, 5 mg 5% IMQ cream was topically applied on one pinna, while the contralateral pinna was treated with a similar amount of Vaseline for 3 days, and then 10^7 CFU of C. accolens, in 50% glycerol, was topically applied daily to both pinnae. Ear thickness was measured daily using a digital caliper. C. accolens, originally from ATCC, was provided by J. Kang and grown as described (61).
# [4] = test system: primary mouse keratinocytes; assay: keratinocyte cell permeabilization assay (Sytox dye uptake, live cell imaging); format: cell-based; conditions: WT keratinocytes, 30 μM iE-DAP, 24 h; MTX increasing concentration, zVAD-fmk 10 μM, DMF 50 μM
# Procedure: (§2) Adult (6-8 weeks) mouse keratinocytes were isolated from male or female animals using protocols described previously (57). In brief, tail skin was incubated in 1 mg/ml Dispase II (Roche) overnight at 4° C. The epidermis was physically removed from the dermis with tweezers following Dispase II treatment, subsequently digested with TrypLE (Thermo) for 20 min at room temperature, and keratinocytes were detached by vigorously shaking in EpiLife culture medium and filtered with a 70 μm strainer (Fisher scientific). Isolated cells were seeded at a density of 10^5 cells/cm^2 cultured with EpiLife (Gibco) in 12-well plates precoated with coating matrix (Gibco) and used between 3 and 5 days after isolation.
# For cell permeabilization assays, 1×10^5 keratinocytes/well were seeded in a 96-well plate (Denville Scientific Inc.). After reaching 80% confluency, 30 μM iE-DAP was added to culture media with 1 nM Sytox red dye (Thermo) and 0.2 nM hoechst stain (Thermo). Plates were then cultured in a Cytation5 (BioTek) live imaging device and each well was imaged every 30 min for 24 hours. For analysis, Gen5 software were used to count the total number of Hoechst-stained nuclei and the total number of permeabilized cells were quantified as the number of Sytox positive nuclei. The Percentage of Sytox^+ cells was then calculated and plotted.
# [5] = test system: primary mouse keratinocytes; assay: cytokine ELISAs from primary keratinocyte culture media; format: cell-based
# Procedure: as §2
# For cytokine ELISAs, primary keratinocytes were either mock-treated or treated with 8 μM TCT or 30 μM iE-DAP for 24 h Culture medium was harvested and centrifuged at 500 g for 15 mins and analyzed using ELISA kits detecting CXCL1 (KC), IL-6, TNF-α, IL-1α and IL-1β (R&D systems) following the manufacturer's protocols. In brief, 96-well ELISA plates were coated with capture antibody overnight at room temperature. The next day, the plate was washed three times with wash buffer and incubated with harvested media (100 μl) for 2 h followed by three washes and then probed with biotin-labelled detection antibody for 2 h. After three washes with wash buffer, plates were incubated with HRP-streptavidin for 20 min at room temperature (RT), developed with TMB (3,3′,5,5″-tetramethylbenzidine) substrate for 20 min at RT, and then stopped with IN sulfuric acid. Plate was analyzed at 450 nm with wavelength correction at 540 nm.
# Slc46a2 = target: T1, Slc46a2; assay: click-muropeptide uptake into keratinocytes (CalFluor 488 Azide, confocal imaging and lysate fluorescence); format: cell-based; conditions: WT or Nod1−/− keratinocytes, 30 μM click-iE-DAP; MTX 250 μM or unlabeled iE-DAP 30 μM
# Procedure: For visualization, mouse keratinocytes were challenged with click-iE-DAP (30 μM) or click-MDP (20 μM) 37° C. for 30-60 min, cells washed 2× with 1×PBS to remove access of click-muropeptides and fixed with 4% paraformaldehyde in PBS at RT for 10 min. Cells were permeabilized with 1% Triton-X in PBS for 10 min at RT and blocked with 1% BSA in PBS. These permeabilized cells were then incubated in click-reaction conditions (250 μM CuSO4, 35 μM BTAA, 60 μM sodium ascorbate) with 2.5 μM CalFluor 488 Azide at RT for 30 mins. Cells were then washed and mounted on slides, with DAPI containing mounting media. Slides were imaged with a Leica SP8 confocal microscope.
# [6] = test system: primary mouse keratinocytes; assay: lipid nanoparticle (NP) mediated iE-DAP/dye delivery into keratinocytes; format: cell-based; conditions: keratinocytes pretreated with 250 μM MTX, iE-DAP delivered by dye-loaded NP
# Procedure: Briefly, a matrix of DOPC/DSPC/DOPG/cholesterol/DSPE-mPEG at 33.5/33.5/20/10/3 mol % was prepared in chloroform and dry lipid/cholesterol films were allowed to form. Films were rehydrated with iE-DAP (Invivogen) prepared in PBS at 1.2 mg/mL and these samples were vortexed for 30 sec every 10 min for 1 hr at 56° C. to complete this process. Following rehydration, samples were ultrasonicated in alternating 20 sec pulse/10 sec off cycles for 5 min at an amplitude of 20% to form iEDAP-encapsulated lipid-based NPs. Samples were dialyzed for 1 hr following ultrasonication. Dynamic light scattering (DLS) and zeta potential measurements using a Malvern Zetasizer were used to characterize NP size and surface charge, respectively. […] Quant-IT assay (Thermo Fisher Scientific) measurements were used to measure average iE-DAP encapsulation at 998.1 μg/mL and an average encapsulation efficiency of 57.1%. To visualize iE-DAP-encapsulated NPs, 0.1 mol % of the fluorescent lipid tracer dye 3,3′-dioctadecyloxacarbocyanine perchlorate (DiO) were added to the lipid/cholesterol films. Mouse keratinocytes were challenged iE-DAP loaded NPs, or control empty NPs, at 37° C. at 10 μg/ml final concentration (˜30 μM iE-DAP), and then monitored for Sytox uptake assay for 24 h, as described above. […]
# [7] = test system: HSE dermal fibroblasts (CXCL8); assay: CXCL8 induction in Human Skin Equivalents (HSE) skin organoids; format: cell-based; conditions: concomitant treatment with iE-DAP
# [8] = test system: primary dermal fibroblasts; assay: CXCL1 (KC) ELISA from primary dermal fibroblasts; format: cell-based, mouse; conditions: iE-DAP 30 μM or IL-1α 10 ng/ml, 24 hrs
# Procedure: Mouse dermal fibroblasts were isolated as described herein. In brief, mouse pinnae were incubated on a table shaker (200 rpm) in a collagenase D-pronase solution [2.5 mg/ml collagenase-D (Sigma), 20 mg/ml pronase (Sigma) diluted in 1M Tris, pH 8.0 and containing 1 μM EDTA (Sigma)] for 90 min at 37° C. Fibroblasts were then isolated by pressing digested skin through a 70 μm cell strainer, and cells were collected and cultured in RPMI 1640 medium with 10% FBS, 50 μM 2-mercaptoethanol, 100 μM asparagine, 2 mM glutamine, 1% penicillin-streptomycin for 2-4 passages before stimulating with immune elicitors, and/or harvesting media or cells.
# For cytokine ELISAs from dermal fibroblast, cells were challenged with IL-1α (10 ng/ml) or 30 μM iE-DAP for 24 h, and media was collected and processed for ELISA as described above.
# [9] = intradermal, 3 h, TCT 8 μM, iE-DAP 30 μM, MDP 10 μM
molecule,measurement,setting,value
"CC(=O)N[C@H]1C(O)O[C@H](CO)[C@@H](O)[C@@H]1O[C@H](C)C(=O)N[C@@H](C)C(=O)N[C@H](CCC(=O)O)C(N)=O (mixture of isomers) [MDP, muramyl dipeptide]",neutrophil recruitment response in Slc46a3−/− mice,"[1]; intradermal, 3 h, MDP 10 μM",significantly defective
same,neutrophil recruitment response in Slc46a2-deficient mice compared to WT,[1]; [9],responded normally
same,neutrophil recruitment response in Slc46a2−/− mice,[2],responded like wild-type
same,neutrophil recruitment response in Slc46a3−/− mice,[2],failing to respond
CCCCCCCCCCCC(=O)N[C@H](CCC(=O)NC(CCCC(N)C(=O)O)C(=O)O)C(=O)O (stereo partly shown) [C12-iE-DAP],neutrophil recruitment response in Slc46a2-deficient mice compared to WT,[1]; [9],not significantly changed
"CC(C)Cn1cnc2c(N)nc3ccccc3c21 [IMQ, imiquimod]",inflammation in Slc46a2- and Nod1-deficient mice,[3]; 7-day course of topical IMQ,markedly resistant
same,"inflammation in WT mice (ear thickness, H&E histology)","[3]; 7-day course of topical IMQ, WT mice",expected psoriatic-like inflammation
"CN(Cc1cnc2nc(N)nc(N)c2n1)c1ccc(C(=O)N[C@@H](CCC(=O)O)C(=O)O)cc1 [MTX, methotrexate]",inhibition of DAP-muropeptide triggered keratinocyte permeabilization (Sytox uptake),[4],inhibited
same,IL-1α release in iE-DAP treated WT keratinocytes,"[5]; 250 μM MTX along with 30 μM iE DAP, 24 hours",prevented
same,inhibition of DAP-muropeptide triggered IL-1α release,"[5]; keratinocytes, iE-DAP, increasing concentrations of MTX, dose dependent",inhibited
same,effect on cytosolic accumulation / cellular uptake of click-iE-DAP,Slc46a2,blocked; also recorded: interfered
same,effect on NP-mediated iE-DAP / dye delivery,[6],failed to interfere; also recorded: did not affect
same,residual inflammation in Slc46a2−/− and Nod1−/− skin,"[3]; Slc46a2−/− and Nod1−/− mice, IMQ daily with topical 50 μl of 250 μM MTX",no observable effect; also recorded: minimalistic effect
same,psoriasis like inflammation in WT skin,"[3]; WT mice, IMQ daily with topical 50 μl of 250 μM MTX",reduced; also recorded: less inflamed
C[C@H](N)C(=O)N[C@H](CCC(=O)NC(CCCC(N)C(=O)O)C(=O)O)C(=O)O (stereo partly shown) [Tri-DAP],neutrophil recruitment response in Slc46a2-deficient mice compared to WT,[1]; [9],significantly reduced
COC(=O)C[C@H](NC(=O)[C@H](C)NC(=O)[C@@H](NC(=O)OCc1ccccc1)C(C)C)C(=O)CF [zVAD-FMK] (Cbz-Val-Ala-Asp(OMe)-CH2F),inhibition of DAP-muropeptide triggered keratinocyte permeabilization (Sytox uptake),[4],prevented
IL-1Ra: recombinant IL-1R antagonist,effect on iE-DAP induced CXCL8 in HSE dermis,[7],prevented
same,effect on iE-DAP induced CXCL8 in HSE dermis,[7]; listed as IL-IRA,blocked
tracheal cytotoxin [TCT],neutrophil / leukocyte recruitment to the skin in WT mice,"[1]; intradermal 10 μl, TCT 8 μM, LPS 10 μg/ml, iE-DAP 30 μM, 1 to 24 h",rapid and robust; also recorded: robust and rapid
same,time of peak leukocyte recruitment,"[1]; intradermal TCT, monitored between 1 and 24 h",3 h
same,neutrophil recruitment response in Slc46a2-deficient mice compared to WT,[1]; [9],significantly reduced
B1,CXCL1 (KC) response of primary dermal fibroblasts,[8],induced
